The values that follow come from ChEMBL document CHEMBL3046683, “Anti-inflammatory and analgesic activities of a new cucurbitacin isolated from Citrullus colocynthis seeds” (2013).

Structures are written as SMILES.

The test system of assay [1] is Mus musculus. In words: Analgesic activity in Swiss albino Mus musculus (mouse) assessed as inhibition of phenylbenzoquinone-induced writhing at 200 mg/kg, sc administered 30 min prior to acetic acid challenge measured for 30 min post phenylbenzoquinone challenge relative to control. The assay is classed as functional. Particulars: route subcutaneous. A general note: An intraperitoneal irritant provokes the stretching counted in writhing tests.

Assay [2] deals with Mus musculus. In words: Analgesic activity in Swiss albino Mus musculus (mouse) assessed as inhibition of acetic acid-induced writhing at 200 mg/kg, sc administered 30 min prior to acetic acid challenge measured for 30 min post acetic acid challenge relative to control. In kind it is functional. Particulars: route subcutaneous.
Assay [3] has as its system Rattus norvegicus. In words: Anti-inflammatory activity in Wistar Rattus norvegicus (rat) assessed as inhibition of carrageenan-induced paw edema at 1 mg/kg, ip administered 30 min prior to carrageenan-challenge measured at 2 hr by plethysmometric analysis relative to control. In kind it is functional. Particulars: route intraperitoneal.
The subject of assay [4] is Rattus norvegicus. In words: Anti-inflammatory activity in Wistar Rattus norvegicus (rat) assessed as inhibition of carrageenan-induced paw edema at 1 mg/kg, ip administered 30 min prior to carrageenan-challenge measured at 1 hr by plethysmometric analysis relative to control. In kind it is functional. The settings on record: route intraperitoneal. (Carrageenan injected into the paw causes an acute inflammation.)

In assay [5] the test system is Rattus norvegicus. In words: Anti-inflammatory activity in Wistar Rattus norvegicus (rat) assessed as inhibition of carrageenan-induced paw edema at 1 mg/kg, ip administered 30 min prior to carrageenan-challenge measured at 3 hr by plethysmometric analysis relative to control. In kind it is functional. Particulars: route intraperitoneal.
Assay [6] relates to Rattus norvegicus. Briefly: Anti-inflammatory activity in Wistar Rattus norvegicus (rat) assessed as inhibition of carrageenan-induced paw edema at 1 mg/kg, ip administered 30 min prior to carrageenan-challenge measured at 6 hr by plethysmometric analysis relative to control. In kind it is functional. Particulars: route intraperitoneal.
The subject of assay [7] is Rattus norvegicus. In words: Anti-inflammatory activity in Wistar Rattus norvegicus (rat) assessed as inhibition of carrageenan-induced paw edema at 1 mg/kg, ip administered 30 min prior to carrageenan-challenge measured at 4 hr by plethysmometric analysis relative to control. The assay is classed as functional. The settings on record: route intraperitoneal.
The test system of assay [8] is Rattus norvegicus. Briefly: Anti-inflammatory activity in Wistar Rattus norvegicus (rat) assessed as inhibition of carrageenan-induced paw edema at 1 mg/kg, ip administered 30 min prior to carrageenan-challenge measured at 5 hr by plethysmometric analysis relative to control. In kind it is functional. The settings on record: route intraperitoneal.
Assay [9] has as its system Mus musculus. In words: Analgesic activity in sc dosed Swiss albino Mus musculus (mouse) assessed as inhibition of phenylbenzoquinone-induced writhing administered 30 min prior to acetic acid challenge measured for 30 min post phenylbenzoquinone challenge relative to control. The assay is classed as functional, organism-based.
Assay [10] has as its system Rattus norvegicus. In words: Anti-inflammatory activity in Wistar Rattus norvegicus (rat) assessed as inhibition of carrageenan-induced paw edema at 0.5 mg/kg, ip administered 30 min prior to carrageenan-challenge measured at 1 hr by plethysmometric analysis relative to control. The assay is classed as functional. Particulars: route intraperitoneal.
The subject of assay [11] is Rattus norvegicus. Briefly: Anti-inflammatory activity in Wistar Rattus norvegicus (rat) assessed as inhibition of carrageenan-induced paw edema at 0.1 mg/kg, ip administered 30 min prior to carrageenan-challenge measured at 6 hr by plethysmometric analysis relative to control. The assay is classed as functional. Particulars: route intraperitoneal.
For assay [12], the system named is Mus musculus. Briefly: Analgesic activity in Swiss albino Mus musculus (mouse) assessed as inhibition of phenylbenzoquinone-induced writhing at 0.1 mg/kg, sc administered 30 min prior to acetic acid challenge measured for 30 min post phenylbenzoquinone challenge relative to control. The assay is classed as functional. The settings on record: route subcutaneous.

The test system of assay [13] is Rattus norvegicus. In words: Anti-inflammatory activity in Wistar Rattus norvegicus (rat) assessed as inhibition of carrageenan-induced paw edema at 0.1 mg/kg, ip administered 30 min prior to carrageenan-challenge measured at 5 hr by plethysmometric analysis relative to control. In kind it is functional. The settings on record: route intraperitoneal.
For assay [14], the system named is Mus musculus. In words: Analgesic activity in sc dosed Swiss albino Mus musculus (mouse) assessed as inhibition of acetic acid-induced writhing administered 30 min prior to acetic acid challenge measured for 30 min post acetic acid challenge relative to control. In kind it is functional, organism-based.
Assay [15] concerns Rattus norvegicus. Briefly: Anti-inflammatory activity in Wistar Rattus norvegicus (rat) assessed as inhibition of carrageenan-induced paw edema at 0.1 mg/kg, ip administered 30 min prior to carrageenan-challenge measured at 1 hr by plethysmometric analysis relative to control. In kind it is functional. The settings on record: route intraperitoneal.
Assay [16] relates to Mus musculus. Briefly: Analgesic activity in Swiss albino Mus musculus (mouse) assessed as inhibition of acetic acid-induced writhing at 0.1 mg/kg, sc administered 30 min prior to acetic acid challenge measured for 30 min post acetic acid challenge relative to control. The assay is classed as functional. Particulars: route subcutaneous.
Assay [17] has as its system Mus musculus. In words: Analgesic activity in Swiss albino Mus musculus (mouse) assessed as inhibition of phenylbenzoquinone-induced writhing at 0.5 mg/kg, sc administered 30 min prior to acetic acid challenge measured for 30 min post phenylbenzoquinone challenge relative to control. In kind it is functional. The settings on record: route subcutaneous.
Assay [18] has as its system Rattus norvegicus. In words: Anti-inflammatory activity in ip dosed Wistar Rattus norvegicus (rat) assessed as inhibition of carrageenan-induced paw edema administered 30 min prior to carrageenan-challenge measured at 1 to 6 hr by plethysmometric analysis relative to control. In kind it is functional, organism-based.
Assay [19] concerns Mus musculus. In words: Analgesic activity in Swiss albino Mus musculus (mouse) assessed as inhibition of phenylbenzoquinone-induced writhing at 0.05 mg/kg, sc administered 30 min prior to acetic acid challenge measured for 30 min post phenylbenzoquinone challenge relative to control. The assay is classed as functional. Particulars: route subcutaneous.
Assay [20] has as its system Rattus norvegicus. In words: Anti-inflammatory activity in Wistar Rattus norvegicus (rat) assessed as inhibition of carrageenan-induced paw edema at 0.1 mg/kg, ip administered 30 min prior to carrageenan-challenge measured at 2 hr by plethysmometric analysis relative to control. The assay is classed as functional. The settings on record: route intraperitoneal.
In assay [21] the test system is Rattus norvegicus. Briefly: Anti-inflammatory activity in Wistar Rattus norvegicus (rat) assessed as inhibition of carrageenan-induced paw edema at 0.1 mg/kg, ip administered 30 min prior to carrageenan-challenge measured at 3 hr by plethysmometric analysis relative to control. Particulars: route intraperitoneal. In kind it is functional.
The subject of assay [22] is Rattus norvegicus. In words: Anti-inflammatory activity in Wistar Rattus norvegicus (rat) assessed as inhibition of carrageenan-induced paw edema at 0.5 mg/kg, ip administered 30 min prior to carrageenan-challenge measured at 3 hr by plethysmometric analysis relative to control. The settings on record: route intraperitoneal. In kind it is functional.
Assay [23] deals with Rattus norvegicus. In words: Anti-inflammatory activity in Wistar Rattus norvegicus (rat) assessed as inhibition of carrageenan-induced paw edema at 0.5 mg/kg, ip administered 30 min prior to carrageenan-challenge measured at 5 hr by plethysmometric analysis relative to control. Particulars: route intraperitoneal. In kind it is functional.
Assay [24] concerns Rattus norvegicus. Briefly: Anti-inflammatory activity in Wistar Rattus norvegicus (rat) assessed as inhibition of carrageenan-induced paw edema at 0.5 mg/kg, ip administered 30 min prior to carrageenan-challenge measured at 4 hr by plethysmometric analysis relative to control. In kind it is functional. Particulars: route intraperitoneal.
In assay [25] the test system is Rattus norvegicus. In words: Anti-inflammatory activity in Wistar Rattus norvegicus (rat) assessed as inhibition of carrageenan-induced paw edema at 0.5 mg/kg, ip administered 30 min prior to carrageenan-challenge measured at 6 hr by plethysmometric analysis relative to control. The settings on record: route intraperitoneal. The assay is classed as functional.
Assay [26] deals with Rattus norvegicus. Briefly: Anti-inflammatory activity in Wistar Rattus norvegicus (rat) assessed as inhibition of carrageenan-induced paw edema at 0.1 mg/kg, ip administered 30 min prior to carrageenan-challenge measured at 4 hr by plethysmometric analysis relative to control. In kind it is functional. The settings on record: route intraperitoneal.
Assay [27] relates to Mus musculus. In words: Analgesic activity in Swiss albino Mus musculus (mouse) assessed as inhibition of acetic acid-induced writhing at 0.05 mg/kg, sc administered 30 min prior to acetic acid challenge measured for 30 min post acetic acid challenge relative to control. In kind it is functional. The settings on record: route subcutaneous.
The subject of assay [28] is Mus musculus. Briefly: Analgesic activity in Swiss albino Mus musculus (mouse) assessed as inhibition of acetic acid-induced writhing at 0.5 mg/kg, sc administered 30 min prior to acetic acid challenge measured for 30 min post acetic acid challenge relative to control. In kind it is functional. The settings on record: route subcutaneous.
Assay [29] deals with Rattus norvegicus. In words: Anti-inflammatory activity in Wistar Rattus norvegicus (rat) assessed as inhibition of carrageenan-induced paw edema at 0.5 mg/kg, ip administered 30 min prior to carrageenan-challenge measured at 2 hr by plethysmometric analysis relative to control. The assay is classed as functional. Particulars: route intraperitoneal.

Take `CC(=O)Oc1ccccc1C(=O)O`: the inhibition in vivo (in general, the drop in the measured response relative to a control, in per cent) at 200 mg/kg in assay [1] is 60%; in [2], 62%.
Take `C[C@@H]1C[C@H]2[C@@H]3CCC4=CC(=O)C=C[C@]4(C)[C@@]3(F)[C@@H](O)C[C@]2(C)[C@@]1(O)C(=O)CO` [DEXAMETHASONE]: the inhibition in vivo at 1 mg/kg in assay [3] was determined as 33%; in [4], 29%; in assay [5], 45%; in [6], 89%; in [7], 71%; in assay [8] it was 87%.
Regarding `CC(C)(O)/C=C/C(=O)[C@](C)(O)[C@H]1[C@H](O)C[C@@]2(C)[C@@H]3CC=C4[C@@H](C=C(O[C@@H]5O[C@H](CO)[C@@H](O)[C@H](O)[C@H]5O)C(=O)C4(C)C)[C@]3(C)CC[C@]12C`, the inhibition entry in assay [9], in [14] and in [18] was “Dose-dependent effect” throughout. The inhibition in vivo at 0.5 mg/kg came to 38% in [10]; 89% in assay [17]; 58% in [22]; 84% in [23]; 80% in assay [24]; 84% in [25]. Besides, the results for the inhibition in vivo at 0.5 mg/kg in assay [28] and in [29] were 92% and 40%, respectively. The inhibition in vivo at 0.1 mg/kg in [11] stood at 73%; in assay [12] it was 84%; in assay [13], 72%; in [15], 12%; in assay [16], 88%; in [20], 13%. The inhibition in vivo at 0.1 mg/kg in [21] is 40%; in [26], 60%. Further, the inhibition in vivo at 0.05 mg/kg worked out at 80% in [19] and 86% in assay [27].
